Source: PubChem BioAssay (NCI)
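Five concentrations, 48 hours, 96-well plates. At the TGI there is no net growth.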

Tests used:
Test in all cases: inhibition of tumour cell growth, NCI panel, 48 h
[1] = tested on: 786-0 renal
[2] = tested on: A498 renal
[3] = tested on: A549 NSCLC
[4] = tested on: ACHN renal
[5] = tested on: BT-549 breast
[6] = tested on: CAKI-1 renal
[7] = tested on: CCRF-CEM leukemia
[8] = tested on: COLO 205 colon
[9] = tested on: DU-145 prostate
[10] = tested on: EKVX NSCLC
[11] = tested on: HCC-2998 colon
[12] = tested on: HCT-116 colon
[13] = tested on: HCT-15 colon
[14] = tested on: HL-60(TB) leukemia
[15] = tested on: HOP-92 NSCLC
[16] = tested on: HS 578T breast
[17] = tested on: HT29 colon
[18] = tested on: IGROV1 ovarian
[19] = tested on: K-562 leukemia
[20] = tested on: KM12 colon
[21] = tested on: LOX IMVI melanoma
[22] = tested on: M14 melanoma
[23] = tested on: MALME-3M melanoma
[24] = tested on: MCF7 breast
[25] = tested on: MDA-MB-231 breast
[26] = tested on: MDA-MB-435
[27] = tested on: MDA-N
[28] = tested on: MOLT-4 leukemia
[29] = tested on: NCI-H226 lung
[30] = tested on: NCI-H23 lung
[31] = tested on: NCI-H460 lung
[32] = tested on: NCI/ADR-RES ovarian
[33] = tested on: OVCAR-3 ovarian
[34] = tested on: OVCAR-4 ovarian
[35] = tested on: OVCAR-5 ovarian
[36] = tested on: OVCAR-8 ovarian
[37] = tested on: PC-3 prostate
[38] = tested on: RPMI-8226 leukemia
[39] = tested on: RXF 393 renal
[40] = tested on: SF-268 CNS
[41] = tested on: SF-295 CNS
[42] = tested on: SF-539 CNS
[43] = tested on: SK-MEL-2 melanoma
[44] = tested on: SK-MEL-28 melanoma
[45] = tested on: SK-MEL-5 melanoma
[46] = tested on: SK-OV-3 ovarian
[47] = tested on: SNB-19 CNS
[48] = tested on: SNB-75 CNS
[49] = tested on: SR leukemia
[50] = tested on: SW-620 colon
[51] = tested on: T-47D breast
[52] = tested on: TK-10 renal
[53] = tested on: U251 CNS
[54] = tested on: UACC-257 melanoma
[55] = tested on: UACC-62 melanoma
[56] = tested on: UO-31 renal

Measured: TGI

CN(C(=O)CCC(=O)O)c1ccccc1C(=O)O
> 100 µM: all assays above
